Assay results published in paper PMC12019328, “Discovery of an ApoE4-targeted small-molecule SirT1 enhancer for the treatment of Alzheimer’s disease” (Scientific Reports, 2025).

Biological target: T1, protein arginine methyltransferase (PRMT) (Homo sapiens, UniProt Q86X55)
T1 construct: proteins from human neuroblastoma SH-SY5Y; endogenous in cells; host or cells: SH-SY5Y human neuroblastoma cell lysate
T1 sequence (Q86X55 1-608): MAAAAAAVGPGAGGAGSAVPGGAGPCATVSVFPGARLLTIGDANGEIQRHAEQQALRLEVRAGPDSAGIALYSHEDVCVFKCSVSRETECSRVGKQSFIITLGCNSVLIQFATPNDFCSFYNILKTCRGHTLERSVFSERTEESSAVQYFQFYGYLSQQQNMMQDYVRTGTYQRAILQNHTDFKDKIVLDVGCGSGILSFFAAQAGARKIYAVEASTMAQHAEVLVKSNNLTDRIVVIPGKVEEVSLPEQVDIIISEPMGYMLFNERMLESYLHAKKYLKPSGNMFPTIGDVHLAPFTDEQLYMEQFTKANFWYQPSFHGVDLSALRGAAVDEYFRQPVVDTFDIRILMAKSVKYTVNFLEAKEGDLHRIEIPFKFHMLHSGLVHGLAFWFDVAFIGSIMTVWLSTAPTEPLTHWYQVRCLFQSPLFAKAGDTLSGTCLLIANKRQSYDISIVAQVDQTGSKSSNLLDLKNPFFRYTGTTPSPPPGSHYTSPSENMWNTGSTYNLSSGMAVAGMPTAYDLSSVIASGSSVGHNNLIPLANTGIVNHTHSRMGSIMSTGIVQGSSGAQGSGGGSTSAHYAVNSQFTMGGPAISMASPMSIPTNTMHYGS
Assay: Affinity purification and STRING analysis-based proteomics with SH-SY5Y cell lysates
Type: binding
Settings: compound clicked to agarose magnetic beads
Description: To assist in identification of possible protein interactions of our SirT1 enhancers, affinity purification and STRING analysis-based proteomics was used, as described in Supplementary Methods. […] To assess effects of various PRMTs 1, 4, 5, 7 and 8 on SirT1, N2a-E4 cells were transfected with each of these PRMTs as described in Supplementary Methods. […]
supernatants were transferred to new tubes and lyophilized. Samples were reconstituted in 100 µL of 50/50/0.1 (Water/Acetonitrile/Formic Acid) prior to analysis via liquid chromatography-tandem mass spectrometry (LC-MS/MS).
Normalized chromatographic peak areas was plotted at each time point and the half-life (T1/2) of compound in liver microsomes was determined by using the trendline equation to calculate the time at which compound abundance was 50% of that at timepoint 0 (T0).
Kinetic solubility was assessed by separately diluting a test compound solution (10 mM, 100% DMSO) into the aqueous buffer (PBS pH 7.4) and DMSO at 100 μM, 100 μL total volume.
The solutions were then incubated at 37°C for 90 min and centrifuged (16000xg, 5 min). An aliquot (50 µL) of each supernatant was analyzed by LC-MS/MS.
Five standard concentrations (100, 10, 1, 0.1, and 0, DMSO) in duplicates were incubated at 37°C for 90 min and centrifuged (16000xg, 5 min). Aliquots (50 µL) of supernatant were analyzed by LC-MS/MS to create the standard curve.
Table S2. […]

With `C#Cc1ccc(CC(C)(C)NC(=O)[C@H](C)N)cc1` [DDL-220] the “protein interaction found by affinity purification” value was “a protein arginine methyltransferase (PRMT) interacts with DDL-220”.
